# Measured values as given in the supplement of paper PMC10307832.
# Tests used:
# Assay in all cases: relative viability (nuclei count vs DMSO), 5 days (fraction); higher = more cells survive
# [1] = compound: C/C(=N\NC(=S)N1CCC1)/C2=CC=CC=N2 + C[C@]1(O)C[C@@H](c2nc(-c3ccc4ccc(-c5ccccc5)nc4c3)c3c(N)nccn32)C1 [Linsitinib] (partner 1 µM)
# How it was run: (§1)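 Nuclei were stained with Hoechst during a one-step fixation (final 0.05% Triton X-100, 1% formaldehyde, 1 ug/ml Hoechst) carried out 5 days after dosing, then counted on 4× images. The cells, lung cancer lines in 1536-well plates, had been dosed by pin tool the day after seeding with one drug alone or a fixed anchor-drug dose plus five library-drug doses (not always all listed) in √10 steps. Relative viability is the nuclei count in treated wells divided by that in vehicle wells, and each value is the median of duplicate plates.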
# [2] = compound: C/C(=N\NC(=S)N1CCC1)/C2=CC=CC=N2 + CC1(C)CCC(c2ccc(Cl)cc2)=C(CN2CCN(c3ccc(C(=O)NS(=O)(=O)c4ccc(N[C@H](CCN5CCOCC5)CSc5ccccc5)c(S(=O)(=O)C(F)(F)F)c4)cc3)CC2)C1 [Navitoclax] (partner 0.5 µM)
# How it was run: as §1
# [3] = compound: C/C(=N\NC(=S)N1CCC1)/C2=CC=CC=N2 + COc1cc2c(Oc3ccc(NC(=O)C4(C(=O)Nc5ccc(F)cc5)CC4)cc3F)ccnc2cc1OCCCN1CCOCC1 [Foretinib] (partner 0.25 µM)
# How it was run: as §1
# [4] = compound: C/C(=N\NC(=S)N1CCC1)/C2=CC=CC=N2 + CCNC(=O)c1noc(-c2cc(C(C)C)c(O)cc2O)c1-c1ccc(CN2CCOCC2)cc1 [Luminespib] (partner 0.01 µM)
# How it was run: as §1
Cell Line,relative viability ([1]; first compound 0.05 µM),relative viability ([1]; first compound 0.1581 µM),relative viability ([1]; first compound 0.5 µM),relative viability ([1]; first compound 1.581 µM),relative viability ([1]; first compound 5 µM),relative viability ([2]; first compound 0.05 µM),relative viability ([2]; first compound 0.1581 µM),relative viability ([2]; first compound 0.5 µM),relative viability ([2]; first compound 1.581 µM),relative viability ([2]; first compound 5 µM),relative viability ([3]; first compound 0.05 µM),relative viability ([3]; first compound 0.1581 µM),relative viability ([3]; first compound 0.5 µM),relative viability ([3]; first compound 1.581 µM),relative viability ([3]; first compound 5 µM),relative viability ([4]; first compound 0.05 µM),relative viability ([4]; first compound 0.1581 µM),relative viability ([4]; first compound 0.5 µM),relative viability ([4]; first compound 1.581 µM),relative viability ([4]; first compound 5 µM)
Calu-6,0.11,0.1,0.127,0.115,0.108,0.106,0.122,0.123,0.141,0.126,0.0699,0.0625,0.0749,0.0997,0.0865,,,,,
ChaGo-K-1,,,,,,0.293,0.47,0.27,0.218,0.374,0.217,0.24,0.211,0.176,0.171,0.167,0.172,0.174,0.139,0.161
EKVX,0.141,0.122,0.0907,0.135,0.141,0.127,0.131,0.119,0.132,0.137,0.0957,0.192,0.118,0.104,0.984,0.0986,0.123,0.114,0.119,0.143
EMC-BAC-2,0.365,0.56,0.144,0.178,0.191,0.25,0.645,0.162,0.21,0.168,0.209,0.261,0.246,0.183,0.237,0.217,0.225,0.177,0.19,0.232
EPLC-272H,0.16,0.424,0.173,0.149,0.16,0.108,0.356,0.138,0.125,0.151,0.0785,0.069,0.1,0.0473,0.0779,0.105,0.105,0.192,0.203,0.165
H3255,0.278,0.269,0.276,0.197,0.21,0.103,0.123,0.101,0.094,0.148,0.241,0.245,0.241,0.242,0.29,0.21,0.262,0.232,0.176,0.302
HARA,0.212,0.0896,0.163,0.109,0.08,0.361,0.165,0.212,0.124,0.11,0.207,0.307,0.09,0.0777,0.0635,0.124,0.121,0.0663,0.0648,0.0838
HCC-15,0.237,0.416,0.103,0.102,0.0909,0.198,0.392,0.0695,0.092,0.0784,0.131,0.0633,0.115,0.0865,0.0901,0.128,0.0546,0.119,0.0758,0.072
HCC-44,0.553,0.141,0.143,0.154,0.183,0.782,0.311,0.194,0.222,0.258,,,,,,0.326,0.307,0.283,0.32,0.242
